{"source": "patent US20190225670A1", "about": "“COMPOUNDS AND METHODS FOR ACTIVATING TIE2 SIGNALING” (ASCLEPIX THERAPEUTICS, LLC, priority 2016, published 2019)", "key": {"[1]": {"biological_target": "T1, α5 integrin subunit (Homo sapiens, UniProt P08648)", "T1 construct": "host or cells: human dermal microvascular endothelial cells (MEC)", "T1 sequence (P08648 42-894 limits assumed)": "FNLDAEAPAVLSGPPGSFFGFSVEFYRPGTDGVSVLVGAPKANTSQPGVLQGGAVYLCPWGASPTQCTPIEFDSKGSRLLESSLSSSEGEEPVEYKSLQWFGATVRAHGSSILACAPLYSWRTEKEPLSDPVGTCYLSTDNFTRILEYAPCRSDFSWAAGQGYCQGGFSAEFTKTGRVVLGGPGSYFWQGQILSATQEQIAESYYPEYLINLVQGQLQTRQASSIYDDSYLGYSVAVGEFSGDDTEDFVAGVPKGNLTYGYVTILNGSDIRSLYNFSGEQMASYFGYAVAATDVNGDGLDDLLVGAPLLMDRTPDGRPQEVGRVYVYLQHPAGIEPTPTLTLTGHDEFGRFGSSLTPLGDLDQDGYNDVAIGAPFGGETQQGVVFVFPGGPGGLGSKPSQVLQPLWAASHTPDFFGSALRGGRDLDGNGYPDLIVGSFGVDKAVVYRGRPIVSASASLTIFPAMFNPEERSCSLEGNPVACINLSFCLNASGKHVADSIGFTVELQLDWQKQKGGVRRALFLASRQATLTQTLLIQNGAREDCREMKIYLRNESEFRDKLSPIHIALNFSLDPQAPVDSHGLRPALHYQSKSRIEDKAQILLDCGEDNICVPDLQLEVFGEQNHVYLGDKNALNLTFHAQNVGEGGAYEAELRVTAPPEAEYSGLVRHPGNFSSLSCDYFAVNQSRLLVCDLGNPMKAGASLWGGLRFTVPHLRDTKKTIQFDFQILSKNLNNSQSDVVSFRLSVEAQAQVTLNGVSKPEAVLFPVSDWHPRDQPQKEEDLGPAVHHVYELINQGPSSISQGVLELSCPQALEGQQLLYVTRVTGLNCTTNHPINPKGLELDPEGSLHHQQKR", "T1 sequence (P08648 895-1049 limits assumed)": "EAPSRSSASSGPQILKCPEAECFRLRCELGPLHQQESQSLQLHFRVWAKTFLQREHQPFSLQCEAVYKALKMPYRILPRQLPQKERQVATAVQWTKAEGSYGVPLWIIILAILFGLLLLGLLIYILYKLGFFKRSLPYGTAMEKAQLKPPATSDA", "assay": "Triton X-100 fractionation of MEC lysates, α5 integrin", "format": "cell-based", "experimental": "α5β1-integrin heterodimer and αvβ3-integrin heterodimer are primary targets of AXT107.\nThe isolation of Triton X-100 soluble and insoluble fractions was performed using modifications to previously-described procedures (see, e.g., Lampugnani et al., J Cell Biol. 1995; 129(1):203-217). FN1-coated six-well plates were seeded with 2.5×10^6 cells and cultured for forty-eight hours, as described above. The cultures were then serum starved for ninety minutes in EBM-2 media, treated with 100 μM AXT107 or DMSO vehicle, and fifteen minutes with 1 mM sodium vanadate. […] The plates were then transferred to ice and washed twice with cold dPBS containing Ca^2+ and Mg^2+ and twice with EBM-2 media. The media was then removed and the cells incubated for thirty minutes on ice, at 4° C. in 200 μl of Triton X-100 extraction buffer (10 mM Tris-HCl, pH 7.5; 150 mM NaCl; 2 mM CaCl2); 1% NP-40; 1% […]; and a protease inhibitor cocktail (Cell Signaling, Cat#: 5871)) with occasional agitation. The extraction buffer was gently collected and centrifuged at 12,000×g for five minutes. The supernatant was then mixed with 125 μl of 3×Blue Loading Dye, boiled, and saved as the Triton X-100 soluble fraction at −20° C. […] Samples were analyzed by western blot as described above. […]"}, "[2]": {"test_system": "Tie2", "assay": "Western blot of phospho-Tie2 (Y992) in MEC monolayers treated with AXT107 and angiopoietin", "format": "cell-based, human", "experimental": "A confluent monolayer of human microvascular endothelial cells (HMEC) was serum starved with EBM-2 overnight. After a 90 min treatment with AXT107 at concentrations of 0, 10, 32, and 100 μM, the cells were treated for 15 min with 1 mM sodium orthovanadate. Next the cells were treated with Angiopoietin-2 (Ang-2) at 200 ng/mL for 15 min. Following cell lysis, the lysates were immunoblotted for pTie2 (Y992), pSTAT3 (Y705), and pAkt (S473).\nTo investigate the effects of the integrin inhibitor AXT107 on Tie2 signaling, confluent monolayers of microvascular endothelial cells (MECs) on fibronectin-coated dishes were treated with various concentrations of AXT107 followed by exposure to the Tie2 ligands Ang1 or Ang2.\nFor Ang1/2 signaling investigations, cell culture dishes (10 cm diameter) were coated with 5 μg/ml fibronectin (FN1; Sigma-Aldrich, St. Louis, Mo.) for two hours at 37° C. The FN1 solution was then removed by aspiration and 5×10^6 microvascular endothelial cells (MECs; Lonza, Walkersville, Md.) were plated in EGM-2MV media (Lonza) and cultured for forty-eight hours at 37° C. The cells were then serum starved for sixteen hours in serum-free EGM-2 base media (Lonza). AXT107 (0-100 μM, as indicated) was subsequently added to each culture and incubated for seventy-five minutes at 37° C. The cultures were then treated with 1 mM sodium vanadate (New England Biolabs, Ipswich, Mass.) for fifteen minutes to enhance the phospho-Tie2 signal followed by stimulation with 200 ng/ml angiopoietin (R&D Systems, Minneapolis, Minn.) for an additional fifteen minutes. The cells were then transferred to ice, washed twice with ice cold Dulbecco's phosphate-buffered saline (dPBS) containing Ca^2+ and Mg^2+, and collected by scraping in 500 μl of 1×Blue Loading Buffer (Cell Signaling, Danvers, Mass.). Lysate samples were then sonicated, boiled, and resolved by SDS-PAGE. Specific proteins were identified by Western blot, using the following primary antibodies: Cell Signaling—phospho-Tie2 (Y992) (Cat#: 4221), Tie2 (Cat#: 7403), phospho-Stat3 (Y705) (Cat#: 4113), Stat3 (Cat#: 4904), phospho-Akt (S473) (Cat#: 4058), Akt (Cat#: 9272), phospho-p44/42 MAPK (T202/Y204) (Cat#: 4370), p44/42 MAPK (Cat#: 4695); BD Transduction Laboratories—β1 integrin (Cat#: 610467); Millipore—α5 integrin (Cat#: AB1928) and detected with HRP-conjugated goat anti-rabbit and sheep anti-mouse secondary antibodies (GE healthcare)."}}, "note": "Entries after “also recorded” stand apart in the source; their conditions may differ.", "data": [{"sequence": "LRRFSTAPFAFIDINDVINF [AXT107]", "values": [{"measurement": "α5 integrin subunit location in fractionated lysates", "setting": "[1]; 100 μM AXT107", "value": "relocated to the insoluble fraction"}, {"measurement": "α5 integrin after immunoprecipitation of Tie2", "setting": "[1]; Triton X-100 fractionated lysates, with 200 ng/ml Ang2 or no growth factor", "value": "observed in the peptide-treated, insoluble fraction"}, {"measurement": "Tie2 phosphorylation", "setting": "[2]; AXT107 0-100 μM, then 200 ng/ml Ang2 15 min", "value": "increased phosphorylation; also recorded: significant, dose-dependent increase"}, {"measurement": "Ang1 activity (Tie2 phosphorylation)", "setting": "[2]; AXT107 followed by Ang1, data not shown", "value": "did not significantly influence"}, {"measurement": "total protein levels of Tie2", "setting": "[2]; AXT107 with angiopoietin", "value": "remained unchanged; also recorded: does not influence total levels of Tie2"}, {"measurement": "phosphorylation by peptide alone", "setting": "[2]; in absence of either ligand", "value": "not induced"}]}]}
